Legend:
[1] = system: E. coli ATCC 25922; experiment: OSID-AST (object scattering intensity detection) with pure E. coli culture; type: cell-based; details: 32 μg/ml nitrofurantoin or 2 μg/ml ciprofloxacin, 5 representative tests
Experimental: The integrated object scattering intensity quantification enables detection of bacterial infection and AST for infection positive samples with an algorithm such as that depicted in FIG. 1C. Two test solutions are prepared from a patient's sample. One solution with medium and antibiotics for AST and the other one with medium only as control. To detect bacterial infection, the integrated object scattering intensity in the control group is quantified over time (e.g., the object scattering intensity is measured every 5 min with the 1 min video and for a total of 90 min). Clinical decision determination is based on integrated object scattering intensity. […] Otherwise, the sample is determined as infection negative. For antibiotic resistance detection, the integrated object intensity change over time in the raw sample (ΔIC=ICt−IC0) and in the antibiotic treated sample (ΔIABX=IABXt−IABX0) are calculated. […]
To establish the method, E. coli and S. saprophyticus cultures (see Materials and Methods) with and without antibiotics were imaged for bacteria growth measurements. […] The integrated object intensity of all cells was quantified with a 1 min duration video in every 5 min interval for a total of 90 min after real-time background removal processing. […] To accurately track E. coli growth, the averaged intensity of a 1 min video was quantified in every 5 min.

[2] = system: S. saprophyticus ATCC 15305; experiment: OSID-AST (object scattering intensity detection) with pure S. saprophyticus culture; details: 2 μg/ml ciprofloxacin
Text: ICt is the integrated object scattering intensity of samples without antibiotics at time t, IC0 is the initial intensity of the same sample. ΔIC=ICt−IC0 and ΔIABX=IABXt−IABX0, represent the integrated object scattering intensity change at time t for antibiotic-untreated (control) and -treated samples, respectively. […] For antibiotic resistance detection, the integrated object intensity change over time in the raw sample (ΔIC=ICt−IC0) and in the antibiotic treated sample (ΔIABX=IABXt−IABX0) are calculated. If the ratio between the two (ΔIABX/ΔIC) is above a resistant threshold (TR), or ΔIABX/ΔIC>TR, which indicates insufficient bacterial inhibition by the antibiotic, the sample is identified as resistant. If the ratio is at or below TR, bacteria growth is inhibited by the antibiotic, and the sample is defined as susceptible to that antibiotic.

Compound | time at which antibiotic susceptibility of E. coli cells can be determined (object intensity detection) [1] [min] | ΔIABX/ΔIC ([2]; 90 min, resistance threshold 0.5) | object intensity change of antibiotic treated sample ([2]; 90 min detection, control sample ~1.7 times) [times] | antibiotic susceptibility determination with OSID-AST ([2]; threshold 0.5)
O=C1CN(/N=C/c2ccc([N+](=O)[O-])o2)C(=O)N1 [nitrofurantoin] | 40 | – | – | –
O=C(O)c1cn(C2CC2)c2cc(N3CCNCC3)c(F)cc2c1=O [ciprofloxacin] | 60 | ~0.14 | ~1.1 | susceptible
